Results: patent publication US20250333371A1, “COMPOUNDS” (PSYLO PTY LTD, priority 2022, published 2025)

biological target: T1, 5-HT2A (Homo sapiens, UniProt P28223); assay: FLIPR Ca2+ flux functional assay, 5-HT2A receptor (stably transfected HEK293); assay type: cell-based; details: agonist activity, Ca2+ flux, HEK293
T1 construct: host or cells: HEK293
Method: (§1) Activity at 5-HT2A, 5-HT2B and 5-HT2C receptors was determined using a FLIPR Ca^2+ flux assay at WuXi AppTec Co. Ltd. (Hong Kong) Discovery Biology Unit according to their standard protocols. Briefly, stably transfected cells expressing the receptor of interest (HEK293 for 5-HT2A and 5-HT2C; CHO-K1 for 5-HT2B) were grown and plated in a 384 well plate and incubated at 37° C. and 5% CO2 overnight. A 250 mM stock solution of probenecid in FLIPR calcium assay buffer (10 mL) was freshly prepared and combined with a fluorescent dye (Fluo-4 Direct) to give a final assay concentration of 2.5 mM. Reference compounds were 4-fold serially diluted and the screening compounds were 3-fold serially diluted in 100% DMSO for 10 points using Agilent Bravo, and 750 nL was added to a 384 well compound plate using Echo along with 30 μL assay buffer. The fluorescent dye was then added to the assay plate along with assay buffer to a final volume of 40 μL. The cell plate was incubated for 50 min at 37° C. and 5% CO2 and placed into the FLIPR Tetra along with the compound plate. 10 μL of references and compounds were then transferred from the compound plate into the cell plate and the fluorescent signal was read.

T1 sequence (P28223 whole entry): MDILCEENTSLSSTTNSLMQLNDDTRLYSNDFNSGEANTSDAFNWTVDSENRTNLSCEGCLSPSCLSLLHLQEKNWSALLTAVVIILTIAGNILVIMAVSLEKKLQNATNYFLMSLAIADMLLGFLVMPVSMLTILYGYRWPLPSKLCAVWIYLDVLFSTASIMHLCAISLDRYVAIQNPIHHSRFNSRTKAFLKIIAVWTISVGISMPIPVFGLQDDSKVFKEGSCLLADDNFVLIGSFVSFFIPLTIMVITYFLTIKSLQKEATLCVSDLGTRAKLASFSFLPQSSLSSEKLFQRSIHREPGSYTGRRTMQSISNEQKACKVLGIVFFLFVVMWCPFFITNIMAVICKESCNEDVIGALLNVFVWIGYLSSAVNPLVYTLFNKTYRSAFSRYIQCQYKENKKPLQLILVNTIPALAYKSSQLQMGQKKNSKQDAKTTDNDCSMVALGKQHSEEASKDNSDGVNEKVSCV

| Structure (SMILES) | Emax |
| --- | --- |
| CC(C)N(C)CCc1cccc2cccc(O)c12 [Example I-29, 8-(2-(methyl(isopropyl)amino)ethyl)naphthalen-1-ol] | 79% |
| COc1cccc2cccc(CCN(C)C3CC3)c12 [Example I-30, N-(2-(8-methoxynaphthalen-1-yl)ethyl)-N-methylcyclopropanamine] | 48% |
| CCN(C)CCc1cccc2ccc(OC)cc12 [Example I-5, N-ethyl-2-(7-methoxynaphthalen-1-yl)-N-methylethan-1-amine] | 63% |
| CN(CCc1cccc2ccc(F)cc12)C1CC1 [Example I-41, N-(2-(7-fluoronaphthalen-1-yl)ethyl)-N-methylcyclopropanamine] | 33% |
| COc1cccc2cccc(CCN(C(C)C)C(C)C)c12 [Example I-24, N-isopropyl-N-(2-(8-methoxynaphthalen-1-yl)ethyl)propan-2-amine] | 98% |
| COc1cnc2cccc(CCN(C)C)c2c1 [Example I-9, 2-(3-methoxyquinolin-5-yl)-N,N-dimethylethan-1-amine] | 39% |
| CN(CCc1cccc2cccc(O)c12)C1CC1 [Example I-31, 8-(2-(cyclopropyl(methyl)amino)ethyl)naphthalen-1-ol] | 64% |
| CCCN(CCC)CCc1cccc2ccc(OC)cc12 [Example I-3, N-(2-(7-methoxynaphthalen-1-yl)ethyl)-N-propylpropan-1-amine] | 77% |

same assay, conditions: agonist activity, Ca2+ flux, HEK293; read-out: 5-HT2A EC50

| Structure (SMILES) | EC50 |
| --- | --- |
| CC(C)N(C)CCc1cccc2cccc(O)c12 [Example I-29, 8-(2-(methyl(isopropyl)amino)ethyl)naphthalen-1-ol] | 36 nM |
| COc1cccc2cccc(CCN(C)C3CC3)c12 [Example I-30, N-(2-(8-methoxynaphthalen-1-yl)ethyl)-N-methylcyclopropanamine] | 496 nM |
| CCN(C)CCc1cccc2ccc(OC)cc12 [Example I-5, N-ethyl-2-(7-methoxynaphthalen-1-yl)-N-methylethan-1-amine] | 86 nM |
| CN(CCc1cccc2ccc(F)cc12)C1CC1 [Example I-41, N-(2-(7-fluoronaphthalen-1-yl)ethyl)-N-methylcyclopropanamine] | 1020 nM |
| COc1cccc2cccc(CCN(C(C)C)C(C)C)c12 [Example I-24, N-isopropyl-N-(2-(8-methoxynaphthalen-1-yl)ethyl)propan-2-amine] | 1470 nM |
| COc1cnc2cccc(CCN(C)C)c2c1 [Example I-9, 2-(3-methoxyquinolin-5-yl)-N,N-dimethylethan-1-amine] | 1840 nM |
| CN(CCc1cccc2cccc(O)c12)C1CC1 [Example I-31, 8-(2-(cyclopropyl(methyl)amino)ethyl)naphthalen-1-ol] | 60 nM |
| CCCN(CCC)CCc1cccc2ccc(OC)cc12 [Example I-3, N-(2-(7-methoxynaphthalen-1-yl)ethyl)-N-propylpropan-1-amine] | 234 nM |

biological target: T2, 5-HT2C (Homo sapiens, UniProt P28335); assay: FLIPR Ca2+ flux functional assay, 5-HT2C receptor (stably transfected HEK293); assay type: cell-based; details: not given
T2 construct: host or cells: HEK293
T2 sequence (P28335 33-458): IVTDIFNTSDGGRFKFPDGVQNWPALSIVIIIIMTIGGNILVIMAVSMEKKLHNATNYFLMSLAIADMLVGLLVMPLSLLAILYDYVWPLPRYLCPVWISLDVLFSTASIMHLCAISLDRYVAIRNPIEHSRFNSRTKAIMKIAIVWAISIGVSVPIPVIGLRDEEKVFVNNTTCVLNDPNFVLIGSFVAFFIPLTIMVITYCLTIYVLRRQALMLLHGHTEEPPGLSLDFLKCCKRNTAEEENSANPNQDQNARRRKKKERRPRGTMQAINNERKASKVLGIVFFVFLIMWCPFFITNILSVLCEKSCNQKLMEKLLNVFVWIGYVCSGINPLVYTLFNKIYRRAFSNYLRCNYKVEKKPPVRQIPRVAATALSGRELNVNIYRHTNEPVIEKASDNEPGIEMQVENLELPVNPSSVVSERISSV
Method: as §1

| Structure (SMILES) | EC50 |
| --- | --- |
| CC(C)N(C)CCc1cccc2cccc(O)c12 [Example I-29, 8-(2-(methyl(isopropyl)amino)ethyl)naphthalen-1-ol] | 54 nM |
| CCN(C)CCc1cccc2ccc(OC)cc12 [Example I-5, N-ethyl-2-(7-methoxynaphthalen-1-yl)-N-methylethan-1-amine] | 43 nM |

same assay, conditions: agonist activity, Ca2+ flux, HEK293

| Structure (SMILES) | Emax |
| --- | --- |
| CC(C)N(C)CCc1cccc2cccc(O)c12 [Example I-29, 8-(2-(methyl(isopropyl)amino)ethyl)naphthalen-1-ol] | 84% |
| COc1cccc2cccc(CCN(C)C3CC3)c12 [Example I-30, N-(2-(8-methoxynaphthalen-1-yl)ethyl)-N-methylcyclopropanamine] | 60% |
| CCN(C)CCc1cccc2ccc(OC)cc12 [Example I-5, N-ethyl-2-(7-methoxynaphthalen-1-yl)-N-methylethan-1-amine] | 94% |
| CN(CCc1cccc2ccc(F)cc12)C1CC1 [Example I-41, N-(2-(7-fluoronaphthalen-1-yl)ethyl)-N-methylcyclopropanamine] | 80% |
| COc1cccc2cccc(CCN(C(C)C)C(C)C)c12 [Example I-24, N-isopropyl-N-(2-(8-methoxynaphthalen-1-yl)ethyl)propan-2-amine] | 90% |
| COc1cnc2cccc(CCN(C)C)c2c1 [Example I-9, 2-(3-methoxyquinolin-5-yl)-N,N-dimethylethan-1-amine] | 65% |
| CN(CCc1cccc2cccc(O)c12)C1CC1 [Example I-31, 8-(2-(cyclopropyl(methyl)amino)ethyl)naphthalen-1-ol] | 57% |
| CCCN(CCC)CCc1cccc2ccc(OC)cc12 [Example I-3, N-(2-(7-methoxynaphthalen-1-yl)ethyl)-N-propylpropan-1-amine] | 97% |

same assay, conditions: agonist activity, Ca2+ flux, HEK293; read-out: 5-HT2C EC50

| Structure (SMILES) | EC50 |
| --- | --- |
| COc1cccc2cccc(CCN(C)C3CC3)c12 [Example I-30, N-(2-(8-methoxynaphthalen-1-yl)ethyl)-N-methylcyclopropanamine] | 409 nM |
| CN(CCc1cccc2ccc(F)cc12)C1CC1 [Example I-41, N-(2-(7-fluoronaphthalen-1-yl)ethyl)-N-methylcyclopropanamine] | 150 nM |
| COc1cccc2cccc(CCN(C(C)C)C(C)C)c12 [Example I-24, N-isopropyl-N-(2-(8-methoxynaphthalen-1-yl)ethyl)propan-2-amine] | 2560 nM |
| COc1cnc2cccc(CCN(C)C)c2c1 [Example I-9, 2-(3-methoxyquinolin-5-yl)-N,N-dimethylethan-1-amine] | 2390 nM |
| CN(CCc1cccc2cccc(O)c12)C1CC1 [Example I-31, 8-(2-(cyclopropyl(methyl)amino)ethyl)naphthalen-1-ol] | 123 nM |
| CCCN(CCC)CCc1cccc2ccc(OC)cc12 [Example I-3, N-(2-(7-methoxynaphthalen-1-yl)ethyl)-N-propylpropan-1-amine] | 944 nM |

biological target: T3, 5-HT2B (Homo sapiens, UniProt P41595); assay: FLIPR Ca2+ flux functional assay, 5-HT2B receptor (stably transfected CHO-K1); assay type: cell-based; details: not given
T3 construct: host or cells: CHO-K1
Method: as §1

T3 sequence (P41595 whole entry): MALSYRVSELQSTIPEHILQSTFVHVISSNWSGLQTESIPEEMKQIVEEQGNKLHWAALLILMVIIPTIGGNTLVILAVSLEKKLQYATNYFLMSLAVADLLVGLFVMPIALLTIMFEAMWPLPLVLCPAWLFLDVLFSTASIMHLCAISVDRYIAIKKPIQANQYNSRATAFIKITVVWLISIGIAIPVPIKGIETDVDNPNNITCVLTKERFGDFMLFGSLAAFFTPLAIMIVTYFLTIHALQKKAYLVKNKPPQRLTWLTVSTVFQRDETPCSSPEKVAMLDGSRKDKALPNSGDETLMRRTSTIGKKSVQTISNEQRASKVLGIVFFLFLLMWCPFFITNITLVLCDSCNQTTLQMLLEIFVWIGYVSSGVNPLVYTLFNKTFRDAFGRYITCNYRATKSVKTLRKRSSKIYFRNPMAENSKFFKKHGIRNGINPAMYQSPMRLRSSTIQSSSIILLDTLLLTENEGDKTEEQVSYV

| Structure (SMILES) | EC50 |
| --- | --- |
| CCN(C)CCc1cccc2ccc(OC)cc12 [Example I-5, N-ethyl-2-(7-methoxynaphthalen-1-yl)-N-methylethan-1-amine] | > 10000 nM |

same assay, conditions: agonist activity, Ca2+ flux, CHO-K1

| Structure (SMILES) | Emax |
| --- | --- |
| CCN(C)CCc1cccc2ccc(OC)cc12 [Example I-5, N-ethyl-2-(7-methoxynaphthalen-1-yl)-N-methylethan-1-amine] | 17% |
| COc1cccc2cccc(CCN(C(C)C)C(C)C)c12 [Example I-24, N-isopropyl-N-(2-(8-methoxynaphthalen-1-yl)ethyl)propan-2-amine] | 116% |
| COc1cnc2cccc(CCN(C)C)c2c1 [Example I-9, 2-(3-methoxyquinolin-5-yl)-N,N-dimethylethan-1-amine] | 1% |
| CCCN(CCC)CCc1cccc2ccc(OC)cc12 [Example I-3, N-(2-(7-methoxynaphthalen-1-yl)ethyl)-N-propylpropan-1-amine] | 72% |

same assay, conditions: agonist activity, Ca2+ flux, CHO-K1; read-out: 5-HT2B EC50

| Structure (SMILES) | EC50 |
| --- | --- |
| COc1cccc2cccc(CCN(C(C)C)C(C)C)c12 [Example I-24, N-isopropyl-N-(2-(8-methoxynaphthalen-1-yl)ethyl)propan-2-amine] | 4700 nM |
| COc1cnc2cccc(CCN(C)C)c2c1 [Example I-9, 2-(3-methoxyquinolin-5-yl)-N,N-dimethylethan-1-amine] | > 10000 nM |
| CCCN(CCC)CCc1cccc2ccc(OC)cc12 [Example I-3, N-(2-(7-methoxynaphthalen-1-yl)ethyl)-N-propylpropan-1-amine] | 225 nM |
